Measured values: paper PMC5962653 (Frontiers in Microbiology, 2018)
≈ marks a conversion by molar mass, not a printed value. Where two headings read alike, the source gives them in different places. Marks after values point to notes of the source that are not given here.

How the values were obtained:
[1] = system: K. pneumoniae Kp28, OXA-48 plus CTX-M-15 producer; test: MIC by broth microdilution (agar dilution for fosfomycin); format: cell-based, Klebsiella pneumoniae; settings: supplement table, strain KPc28; for MIC: Klebsiella pneumoniae; for SIR, classification according to EUCAST definitions: EUCAST 2016 breakpoints, fosfomycin by agar dilution
Source text: (§1) Four genetically unrelated clinical isolates of CP-Kp were studied: Kp07, a VIM-1 ST 1603 clone producer ([Miro et al., 2013]); Kp21, which co-produced VIM-1 and the acquired AmpC type beta-lactamase DHA-1 ST 11 clone ([Miro et al., 2013]); Kp28, co-producing OXA-48 ST11 clone and the extended spectrum beta-lactamase (ESBL) CTX-M-15 ([Oteo et al., 2015]); and Kp29, co-producing KPC-3 ST512 clone with the broad spectrum beta-lactamases TEM-1 and SHV-11 ([Lopez-Cerero et al., 2014]), thereinafter VIM-1, VIM-1/DHA-1, OXA-48 plus CTX-M-15, and KPC-3 producers, respectively. Identification of these isolates was confirmed by a Microflex LT-MALDI Biotyper mass spectrometer (Bruker Daltonics GmbH, Bremen, Germany). The presence of carbapenemase genes, and genes coding for other beta-lactamases was confirmed by PCR and sequencing as described previously. The absence of genetic relation among the isolates was confirmed by PFGE analysis of chromosomal restriction fragments obtained after XbaI cleavage following the criteria of [Tenover et al. (1995)]. […] The antibiotic susceptibility profiles are included in the Supplementary Information.
(§2) MICs of antibiotics were determined by broth microdilution as recommended by the [Clinical and Laboratory Standards Institute [CLSI] (2012)], using Mueller Hinton broth II (MHB) (Becton Dickinson & Co., Sparks, MD, United States) and agar dilution method for fosfomycin. MIC results were interpreted according to the [European Committee on Antimicrobial Susceptibility Testing [EUCAST] (2016)]^1 breakpoints. Studies were performed in triplicate.

[2] = system: K. pneumoniae Kp29, KPC-3 producer; test: as above; format: cell-based, Klebsiella pneumoniae; settings: for MIC: Klebsiella pneumoniae
Source text: as §1, §2

[3] = system: K. pneumoniae Kp21, VIM-1/DHA-1 producer; test: as above; format: cell-based, Klebsiella pneumoniae; settings: supplement table, strain KPc21; for MIC: Klebsiella pneumoniae; for SIR, classification according to EUCAST definitions: EUCAST 2016 breakpoints, fosfomycin by agar dilution
Source text: as §1, §2

[4] = system: K. pneumoniae Kp07, VIM-1 producer; test: as above; format: cell-based, Klebsiella pneumoniae; settings: supplement table, strain KPc07; for MIC: Klebsiella pneumoniae; for SIR, classification according to EUCAST definitions: EUCAST 2016 breakpoints, fosfomycin by agar dilution
Source text: as §1, §2

[5] = system: K. pneumoniae OXA-48 plus CTX-M-15 strain; test: Murine peritoneal sepsis model; format: in vivo, C57BL/6 mice infected with Klebsiella pneumoniae; settings: CMS 20 mg/kg/8 h ip, rifampin 25 mg/kg/6 h ip, alone or combined; for Mice mortality (%) / Log10 cfu/g spleen (mean ±SD): 72 h, from 4 h post-inoculation; for Log10 cfu/g spleen (mean ±SD): ip MLD 9.35 log10 cfu/mL, at death or 72 h; for Bacteremia (%): qualitative blood cultures at death or 72 h
Method: (§3) A previously described murine peritoneal sepsis model was used ([Parra Millan et al., 2016]). Briefly, groups of un-anesthetized C57BL/6 mice were infected by ip injection of 0.5 mL of the Minimal Lethal Dose (MLD) of each strain, corresponding to (log10 cfu/mL): 8.97, 8.94 9.35, and 8.38 for VIM-1, VIM-1/DHA-1, OXA-48 plus CTX-M-15, and KPC-3 strains, respectively. Treatments were initiated 4 h post-inoculation. […] Afterward, mice were treated and monitored for 72 h. […] Samples were extracted and processed immediately after the death of mice; the survivor mice were sacrificed (sodium thiopental) at the 72 h. Aseptic thoracotomies were carried out, and blood samples were obtained for qualitative blood cultures; results were expressed as positive (≥1 cfu present in the plate) or negative. Spleens were aseptically extracted, weighed, and homogenized in sterile saline (Stomacher 80; Tekmar Co., Cincinnati, OH, United States) before quantitative cultures (log10 cfu/g) in Columbia agar with 5% sheep blood plates.
(§4) Mortality and bacteremia rates are expressed as percentages and bacterial tissue concentrations (log10 cfu/g) as means ±SD. The two-tailed Fisher’s test, analysis of variance (ANOVA), and the Dunnet and Tukey post hoc tests were used. A P < 0.05 was considered significant. The SPSS v22.0 statistical package was used (SPSS Inc).

[6] = system: K. pneumoniae KPC-3 strain; format: in vivo, C57BL/6 mice infected with Klebsiella pneumoniae; settings: CMS 20 mg/kg/8 h ip, rifampin 25 mg/kg/6 h ip, alone or combined
Method: as §3, §4

[7] = system: K. pneumoniae OXA-48 plus CTX-M-15 strain; format: in vivo; settings: for Bacteremia (%): blood cultures at death or 72 h; for Log10 cfu/g lung (mean ±SD): intratracheal 50 μl of 8.18 log10 cfu/mL, at death or 72 h
Method: A previously characterized murine pneumonia model was used ([Pachon-Ibanez et al., 2010]; [Docobo-Perez et al., 2012]; [Parra Millan et al., 2016]) with the OXA-48 plus CTX-M-15 strain, as OXA-48 is the most prevalent carbapenemase in Spain nowadays ([Palacios-Baena et al., 2016]). Anesthetized mice were infected intratracheally, using 50 μl of a final inoculum of 8.18 log10 cfu/mL. Therapies were initiated 4 h post-infection and treatment groups and dosages were the same as in the peritoneal sepsis model. Mice were treated and monitored over 72 h. After death or sacrifice of the mice at 72 h, blood and lungs samples were aseptically obtained and processed as detailed above.
as §4

[8] = system: K. pneumoniae VIM-1/DHA-1 strain; format: in vivo; settings: CMS 20 mg/kg/8 h ip, rifampin 25 mg/kg/6 h ip, alone or combined; for Mice mortality (%) / Log10 cfu/g spleen (mean ±SD): 72 h, from 4 h post-inoculation; for Log10 cfu/g spleen (mean ±SD): ip MLD 8.94 log10 cfu/mL, at death or 72 h; for Bacteremia (%): qualitative blood cultures at death or 72 h
Method: as §3, §4

[9] = system: K. pneumoniae VIM-1 strain; format: in vivo; settings: CMS 20 mg/kg/8 h ip, rifampin 25 mg/kg/6 h ip, alone or combined; for Bacteremia (%): qualitative blood cultures at death or 72 h
Method: as §3, §4

[10] = mouse, in vivo
Method: (§7) Mice were housed in an individually ventilated cage system under specific pathogen-free conditions, and water and food supplied ad libitum. […] All procedures were performed under sodium thiopental (B. Braun Medical S.A., Spain) anesthesia, and all efforts were made to minimize suffering.
(§8) Blood samples were immediately centrifuged (4500 rpm, 15 min at 4°C), and serum samples stored at -80°C until the analysis. Both serum free and total antibiotic concentrations were measured using HPLC-tandem mass spectrometry (LC-MS/MS) ([Waters et al., 2008]; [Gobin et al., 2010]). Free fractions of the drugs were calculated as described previously ([Waters et al., 2008]; [Gonzalez et al., 2013]; [Cheah et al., 2015]).

[11] = system: K. pneumoniae VIM-1 producer; format: cell-based, Klebsiella pneumoniae; settings: colistin 0.5 mg/L (MIC), rifampin 2 mg/L, alone or combined; inoculum 1 × 10^6 cfu/mL, 37°C, samples 0-24 h; three experiments
Method: (§5) (2016)]. […] Tubes were incubated at 37°C, with shaking, and samples were taken at 0, 1, 3, 6, and 24 h, serially diluted and plated using a spiral platter (Eddy Jet, IUL S.A., Barcelona, Spain). Bacterial colonies were counted using an automatic counter (Flash & Go, IUL S.A., Barcelona, Spain) ([Pournaras et al., 2011]; [Souli et al., 2011]). Experiments were performed three times on separate occasions. […] Bactericidal activities of single antibiotics or combination were defined as a decrease ≥ 3 log10 cfu/mL from the starting inoculum ([Souli et al., 2009]). Studies were performed in triplicate.
(§6) The RIF concentration used for all strains was 2 mg/L. RIF, filled circles; CST, filled squares; combination of both antimicrobials, filled triangles.

[12] = system: K. pneumoniae VIM-1/DHA-1 producer; format: cell-based, Klebsiella pneumoniae; settings: colistin 2 mg/L (EUCAST breakpoint), rifampin 2 mg/L, alone or combined; inoculum 1 × 10^6 cfu/mL, 37°C, samples 0-24 h; three experiments
Method: as §5, §6

[13] = system: K. pneumoniae OXA-48 plus CTX-M-15 producer; format: cell-based, Klebsiella pneumoniae; settings: colistin 0.5 mg/L (MIC), rifampin 2 mg/L, alone or combined; inoculum 1 × 10^6 cfu/mL, 37°C, samples 0-24 h; three experiments
Method: as §5, §6

[14] = Serum pharmacokinetics in healthy mice; settings: single ip dose (CMS 20 mg/kg; rifampin 25 mg/kg), LC-MS/MS, PKSOLVER
Method: as §7, §8

[15] = broth microdilution, read-out: MIC
[16] = 72 h, from 4 h post-inoculation
[17] = CMS 20 mg/kg/8 h ip, rifampin 25 mg/kg/6 h ip, alone or combined
[18] = CMS 20 mg/kg/8 h ip, rifampin 25 mg/kg/6 h ip, alone or combined, from 4 h post-infection, 72 h
[19] = supplement table, strain KPc29, EUCAST 2016 breakpoints, fosfomycin by agar dilution
[20] = agar dilution, read-out: MIC (agar dilution method)

| Compound | MIC [1, 15] | SIR, classification according to EUCAST definitions [1] | MIC [2] | MIC [3, 15] | SIR, classification according to EUCAST definitions [3] | MIC [4, 15] | SIR, classification according to EUCAST definitions [4] | Mice mortality (%) [5] | Log10 cfu/g spleen (mean ±SD) [5] | Bacteremia (%) [5] | Bacteremia (%) [7, 17] | Log10 cfu/g lung (mean ±SD) [7, 18] | Mice mortality (%) [8] | Log10 cfu/g spleen (mean ±SD) [8] | Bacteremia (%) [8] | Mice mortality (%) [9, 16] | Bacteremia (%) [9] | SIR, classification according to EUCAST definitions [2, 19] | other results |
| --- | --- | --- | --- | --- | --- | --- | --- | --- | --- | --- | --- | --- | --- | --- | --- | --- | --- | --- | --- |
| NCC[C@H](O)C(=O)N[C@@H]1C[C@H](N)[C@@H](O[C@H]2O[C@H](CN)[C@@H](O)[C@H](O)[C@H]2O)[C@H](O)[C@H]1O[C@H]1O[C@H](CO)[C@@H](O)[C@H](N)[C@H]1O [Amikacin] | 1 µg/mL (≈ 1.71 µM) | S | > 32 µg/mL | 4 µg/mL (≈ 6.83 µM) | S | 1 µg/mL (≈ 1.71 µM) | S |  |  |  |  |  |  |  |  |  |  |  | SIR, classification according to EUCAST definitions [2]: R |
| colistimethate sodium [CMS] |  |  |  |  |  |  |  | 100% | 9.52 ± 0.55 log10 cfu/g | 100% | 40% | 5.14 ± 3.78 log10 cfu/g | 100% | 9.54 ± 0.34 log10 cfu/g | 100% | 93.33% | 100% |  | Mice mortality (%) [6, 16]: 75%; Log10 cfu/g spleen (mean ±SD) ([6]; ip MLD 8.38 log10 cfu/mL, from 4 h post-inoculation, 72 h, at death or 72 h, SD): 9.19 ± 1.85 log10 cfu/g; Bacteremia (%) ([6]; qualitative blood cultures at death or 72 h): 100%; Mice mortality (%) ([7]; 72 h, CMS 20 mg/kg/8 h ip, rifampin 25 mg/kg/6 h ip, alone or combined, from 4 h post-infection): 26.70%; Bacterial lung decrease ([7]; CMS monotherapy 20 mg/kg/8 h ip vs control group, not significant): 2.91 log10 cfu/g; Log10 cfu/g spleen (mean ±SD) ([9]; ip MLD 8.97 log10 cfu/mL, from 4 h post-inoculation, 72 h, at death or 72 h, SD): 8.60 ± 0.30 log10 cfu/g; t1/2, free drug in serum [10]: 3.82 h; t1/2, total drug in serum [10]: 3.82 h |
| CO[C@H]1/C=C/O[C@@]2(C)Oc3c(C)c(O)c4c(O)c(c(/C=N/N5CCN(C)CC5)c(O)c4c3C2=O)NC(=O)/C(C)=C\C=C\[C@H](C)[C@H](O)[C@@H](C)[C@@H](O)[C@@H](C)[C@H](OC(C)=O)[C@@H]1C [Rifampin, rifampin] |  |  |  |  |  |  |  | 100% | 8.24 ± 0.76^c log10 cfu/g | 100% | 20% | 3.07 ± 1.63^a log10 cfu/g | 100% | 9.68 ± 0.09 log10 cfu/g | 100% | 100% | 100% |  | Bactericidal activity in time-kill curves (decrease ≥ 3 log10 cfu/mL from the starting inoculum) [11]: did not show bactericidal activity; Bactericidal activity in time-kill curves (decrease ≥ 3 log10 cfu/mL from the starting inoculum) [12]: did not show bactericidal activity; Bactericidal activity in time-kill curves (decrease ≥ 3 log10 cfu/mL from the starting inoculum) [13]: did not show bactericidal activity; AUC0-24, free drug in serum (fAUC0-24) ([14]; free (fCST, fRIF)): 44.14 mg⋅h/L; Cmax, free drug in serum ([14]; free (fCST, fRIF), sets of three mice): 2.90 mg/L; AUC0-24, total drug in serum ([14]; total (tCST, tRIF)): 1103.58 mg⋅h/L; Cmax, total drug in serum ([14]; total (tCST, tRIF), sets of three mice): 72.58 mg/L |
| CNC(C)C1CCC(N)C(OC2C(N)CC(N)C(OC3OCC(C)(O)C(NC)C3O)C2O)O1 (stereo not drawn) [Gentamicin] | 0.5 µg/mL (≈ 1.05 µM) | S |  | 2 µg/mL (≈ 4.19 µM) | S | 4 µg/mL (≈ 8.38 µM) | I |  |  |  |  |  |  |  |  |  |  | S |  |
| C[C@@H](O)[C@H]1C(=O)N2C(C(=O)O)=C(S[C@@H]3CN[C@H](C(=O)N(C)C)C3)[C@H](C)[C@H]12 [Meropenem] | 2 µg/mL (≈ 5.22 µM) | S | > 32 µg/mL | 16 µg/mL (≈ 41.7 µM) | R | 2 µg/mL (≈ 5.22 µM) | S |  |  |  |  |  |  |  |  |  |  | R |  |
| C[C@@H]1O[C@@H]1P(=O)(O)O [Fosfomycin] |  | S |  |  | S |  | S |  |  |  |  |  |  |  |  |  |  | R | MIC [1, 20]: 32 µg/mL (≈ 232 µM); MIC ([2]; supplement table, strain KPc29, agar dilution, read-out: MIC (agar dilution method)): 64 µg/mL (≈ 464 µM); MIC [3, 20]: 8 µg/mL (≈ 57.9 µM); MIC [4, 20]: 8 µg/mL (≈ 57.9 µM) |
